Article PMC10938783, “A novel pan-PI3K inhibitor KTC1101 synergizes with anti-PD-1 therapy by targeting tumor suppression and immune activation” (Molecular Cancer, 2024)

Test system: B16 cells gene expression
Test: RNA-Seq (DEGs, GSEA, heatmaps) of B16 cells
Settings: B16 cells, KTC 0.2μM
[1] = GSEA gene set HALLMARK_PI3K_AKT_MTOR_SIGNALING
[2] = GSEA gene set HALLMARK_PROTEIN_SECRETION
[3] = GSEA gene set HALLMARK_REACTIVE_OXIGEN_SPECIES_PATHWAY
[4] = GSEA gene set HALLMARK_SPERMATOGENESIS
[5] = GSEA gene set HALLMARK_TGF_BETA_SIGNALING
[6] = GSEA gene set HALLMARK_TNFA_SIGNALING_VIA_NFKB
[7] = GSEA gene set HALLMARK_UNFOLDED_PROTEIN_RESPONSE
[8] = GSEA gene set HALLMARK_UV_RESPONSE_DN
[9] = GSEA gene set HALLMARK_UV_RESPONSE_UP
[10] = GSEA gene set HALLMARK_WNT_BETA_CATENIN_SIGNALING
[11] = GSEA gene set HALLMARK_XENOBIOTIC_METABOLISM

COc1cc(N)cc2c1nc(C(F)F)n2-c1nc(N2CCCOCC2)nc(N2CCOCC2)n1 [KTC1101, 2-(difluoromethyl)-4-methoxy-1-(4-morpholino-6-(1,4-oxazepan-4-yl)-1,3,5-triazin-2-yl)-1H-benzo[d]imidazol-6-amine]
enrichmentScore (GSEA gene set HALLMARK_PEROXISOME): -0.395
NES [1]: -2.189
enrichmentScore [1]: -0.5044
NES [2]: -1.203
enrichmentScore [2]: -0.2769
NES [3]: -1.95
enrichmentScore [3]: -0.5432
NES [4]: -1.401
enrichmentScore [4]: -0.3536
NES [5]: 1.944
enrichmentScore [5]: 0.6123
NES [6]: 2.211
enrichmentScore [6]: 0.5723
NES [7]: -1.548
enrichmentScore [7]: -0.347
NES [8]: 1.23
enrichmentScore [8]: 0.3315
NES [9]: 1.315
enrichmentScore [9]: 0.3557
NES [10]: 0.901
enrichmentScore [10]: 0.3071
NES [11]: -1.2042
enrichmentScore [11]: -0.2641
NES: Glycolysis / Gluconeogenesis (GSEA KEGG mmu00010): -1.905
enrichmentScore: Glycolysis / Gluconeogenesis (GSEA KEGG mmu00010): -0.5183
NES: Citrate cycle (TCA cycle) (GSEA KEGG mmu00020): -1.91
enrichmentScore: Citrate cycle (TCA cycle) (GSEA KEGG mmu00020): -0.5694
NES: Pentose phosphate pathway (GSEA KEGG mmu00030): -1.779
enrichmentScore: Pentose phosphate pathway (GSEA KEGG mmu00030): -0.5767
NES: Fructose and mannose metabolism (GSEA KEGG mmu00051): -1.345
enrichmentScore: Fructose and mannose metabolism (GSEA KEGG mmu00051): -0.4104
NES: Galactose metabolism (GSEA KEGG mmu00052): -1.484
enrichmentScore: Galactose metabolism (GSEA KEGG mmu00052): -0.4712
NES: Oxidative phosphorylation (GSEA KEGG mmu00190): -2.112
enrichmentScore: Oxidative phosphorylation (GSEA KEGG mmu00190): -0.4855
NES: Purine metabolism (GSEA KEGG mmu00230): 1.524
enrichmentScore: Purine metabolism (GSEA KEGG mmu00230): 0.4484
NES: Pyrimidine metabolism (GSEA KEGG mmu00240): -1.587
enrichmentScore: Pyrimidine metabolism (GSEA KEGG mmu00240): -0.5015
NES: Alanine, aspartate and glutamate metabolism (GSEA KEGG mmu00250): -1.481
enrichmentScore: Alanine, aspartate and glutamate metabolism (GSEA KEGG mmu00250): -0.506
NES: Glycine, serine and threonine metabolism (GSEA KEGG mmu00260): -2.025
enrichmentScore: Glycine, serine and threonine metabolism (GSEA KEGG mmu00260): -0.643
NES: Cysteine and methionine metabolism (GSEA KEGG mmu00270): -1.68
enrichmentScore: Cysteine and methionine metabolism (GSEA KEGG mmu00270): -0.4743
NES: Valine, leucine and isoleucine degradation (GSEA KEGG mmu00280): -1.453
enrichmentScore: Valine, leucine and isoleucine degradation (GSEA KEGG mmu00280): -0.399
NES: Arginine and proline metabolism (GSEA KEGG mmu00330): -1.547
enrichmentScore: Arginine and proline metabolism (GSEA KEGG mmu00330): -0.474
NES: Glutathione metabolism (GSEA KEGG mmu00480): -1.885
enrichmentScore: Glutathione metabolism (GSEA KEGG mmu00480): -0.5172
NES: Amino sugar and nucleotide sugar metabolism (GSEA KEGG mmu00520): -1.225
enrichmentScore: Amino sugar and nucleotide sugar metabolism (GSEA KEGG mmu00520): -0.3367
NES: Glycerolipid metabolism (GSEA KEGG mmu00561): -1.232
enrichmentScore: Glycerolipid metabolism (GSEA KEGG mmu00561): -0.3383
NES: Ether lipid metabolism (GSEA KEGG mmu00565): -1.318
enrichmentScore: Ether lipid metabolism (GSEA KEGG mmu00565): -0.4355
NES: Pyruvate metabolism (GSEA KEGG mmu00620): -1.8611
enrichmentScore: Pyruvate metabolism (GSEA KEGG mmu00620): -0.5447
NES: Glyoxylate and dicarboxylate metabolism (GSEA KEGG mmu00630): -2.109
enrichmentScore: Glyoxylate and dicarboxylate metabolism (GSEA KEGG mmu00630): -0.6578
NES: Propanoate metabolism (GSEA KEGG mmu00640): -1.418
enrichmentScore: Propanoate metabolism (GSEA KEGG mmu00640): -0.4326
NES: Terpenoid backbone biosynthesis (GSEA KEGG mmu00900): -2.318
enrichmentScore: Terpenoid backbone biosynthesis (GSEA KEGG mmu00900): -0.7921
NES: Drug metabolism - other enzymes (GSEA KEGG mmu00983): -1.978
enrichmentScore: Drug metabolism - other enzymes (GSEA KEGG mmu00983): -0.5867
NES: Carbon metabolism (GSEA KEGG mmu01200): -2.129
enrichmentScore: Carbon metabolism (GSEA KEGG mmu01200): -0.4924
NES: 2-Oxocarboxylic acid metabolism (GSEA KEGG mmu01210): -1.574
enrichmentScore: 2-Oxocarboxylic acid metabolism (GSEA KEGG mmu01210): -0.4801
NES: Fatty acid metabolism (GSEA KEGG mmu01212): -1.192
enrichmentScore: Fatty acid metabolism (GSEA KEGG mmu01212): -0.3243
NES: Biosynthesis of amino acids (GSEA KEGG mmu01230): -2.742
enrichmentScore: Biosynthesis of amino acids (GSEA KEGG mmu01230): -0.7082
NES: Nucleotide metabolism (GSEA KEGG mmu01232): -1.799
enrichmentScore: Nucleotide metabolism (GSEA KEGG mmu01232): -0.4975
NES: Biosynthesis of cofactors (GSEA KEGG mmu01240): -1.22
enrichmentScore: Biosynthesis of cofactors (GSEA KEGG mmu01240): -0.2823
NES: EGFR tyrosine kinase inhibitor resistance (GSEA KEGG mmu01521): 1.545
enrichmentScore: EGFR tyrosine kinase inhibitor resistance (GSEA KEGG mmu01521): 0.4546
